Molecules are shown by their SMILES.

recombinant human S1P1 receptor, sequence (P21453 whole entry): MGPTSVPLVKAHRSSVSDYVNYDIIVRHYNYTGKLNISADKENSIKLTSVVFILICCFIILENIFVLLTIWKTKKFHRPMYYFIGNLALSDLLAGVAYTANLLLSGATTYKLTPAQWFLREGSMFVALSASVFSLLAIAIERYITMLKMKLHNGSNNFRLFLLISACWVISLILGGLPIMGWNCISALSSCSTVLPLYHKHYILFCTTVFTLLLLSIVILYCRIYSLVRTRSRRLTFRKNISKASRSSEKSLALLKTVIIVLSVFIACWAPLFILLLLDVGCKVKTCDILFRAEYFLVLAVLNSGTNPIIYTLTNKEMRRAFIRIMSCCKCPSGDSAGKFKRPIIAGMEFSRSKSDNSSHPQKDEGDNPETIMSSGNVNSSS

One test has as its target recombinant human S1P1 receptor (Homo sapiens, UniProt P21453). The test is described as follows: GTPγS assay to determine EC50 values. Format: biochemical. As to conditions: agonistic activity; membrane preparations of CHO cells expressing recombinant human S1P1 receptor; 35S-GTPγS binding. Here is the method:
i) GTPγS assay to determine EC50 values
GTPγS binding assays are performed in 96 well microtiter plates (Nunc, 442587) in a final volume of 200 μl, using membrane preparations of CHO cells expressing recombinant human S1P1 receptor. Assay conditions are 20 mM Hepes (Fluka, 54461), 100 mM NaCl (Fluka, 71378), 5 mM MgCl2 (Fluka, 63064), 0.1% BSA (Calbiochem, 126609), 1 μM GDP (Sigma, G-7127), 2.5% DMSO (Fluka, 41644), 50 pM ^35S-GTPγS (Amersham Biosciences, SJ1320). The pH is 7.4. Test compounds are dissolved and diluted in 100% DMSO and pre-incubated at room temperature for 30 min in 150 μl of the above assay buffer, in the absence of ^35S-GTPγS. After addition of 50 μl of ^35S-GTPγS, the assay is incubated for 1 h at rt. The assay is terminated by transfer of the reaction mixture to a Multiscreen plate (Millipore, MAHFC1H60) using a cell harvester from Packard Biosciences, and the plates are washed with ice-cold 10 mM Na2HPO4/NaH2PO4 (70%/30%), dried, sealed at the bottom and, after addition of 25 μl MicroScint20 (Packard Biosciences, order#6013621), sealed on the top. Membrane-bound ^35S-GTPγS is measured with a TopCount from Packard Biosciences.
EC50 is the concentration of agonist inducing 50% of the maximal specific ^35S-GTPγS binding. Specific binding is determined by subtracting non-specific binding from maximal binding. Maximal binding is the amount of cpm bound to the Multiscreen plate in the presence of 10 μM of S1P. Non-specific binding is the amount of binding in the absence of an agonist in the assay.
As to `Cc1cc(-c2nc(-c3cc(C)c(OCC(O)CNC(=O)CO)c(Cl)c3)no2)cc(CC(C)C)n1` (centres unmarked) [Example 145], the EC50 is 0.2 nM.
For the compound `CCc1cc(-c2noc(-c3cc(C)nc(C(CC)CC)c3)n2)cc(C)c1OC[C@@H](O)CO` [Example 196], the EC50 was determined as 0.6 nM.
For `CCCc1cc(-c2noc(-c3cc(C)nc(C(C)C)c3)n2)cc(C)c1OC[C@@H](O)CNC(=O)CO` [Example 123], the EC50 was determined as 0.4 nM.
As to `CCCc1cc(-c2nc(-c3cc(C)c(O)c(CC)c3)no2)cc(C)n1` [Example 86], the EC50 came out at 5.6 nM.
With `Cc1cc(-c2nc(-c3cc(C)c(OCC(O)CNC(=O)CO)c(C)c3)no2)cc(CC(C)C)n1` (racemic) [Example 11, 2-Hydroxy-N-((RS)-2-hydroxy-3-{4-[5-(2-isobutyl-6-methyl-pyridin-4-yl)-[1,2,4]oxadiazol-3-yl]-2,6-dimethyl-phenoxy}-propyl)-acetamide], the EC50 amounted to 0.2 nM.
For the compound `CCc1cc(-c2noc(-c3cc(C)c(OC[C@@H](O)CNC(=O)CO)c(CC)c3)n2)cc(C)n1` [Example 74], the EC50 is 4.3 nM.
For `CCOc1cc(-c2nc(-c3cc(C)c(OCC(O)CO)c(C)c3)no2)cc(C)n1` (racemic) [Example 27, (RS)-3-{4-[5-(2-Ethoxy-6-methyl-pyridin-4-yl)-[1,2,4]oxadiazol-3-yl]-2,6-dimethyl-phenoxy}-propane-1,2-diol], the EC50 came out at 2.5 nM.
As for `CCCc1cc(-c2nc(-c3cc(C)c(OCC(O)CNC(=O)CO)c(C)c3)no2)cc(C)n1` (centres unmarked) [Example 95], the 50% effective concentration (EC50) is 0.4 nM.
Same read-out and setting: the value for `CCc1cc(-c2nnc(-c3cc(C)nc(CC(C)C)c3)o2)cc(C)c1OC[C@@H](O)CNC(=O)CO` [Example 180] was 0.8 nM; that for `COc1cc(-c2noc(-c3cc(C)nc(CC(C)C)c3)n2)cc(Cl)c1OC[C@H](O)CNC(=O)CO` [Example 160] was 0.7 nM.
On to `Cc1cc(-c2noc(-c3cc(Cl)nc(CC(C)C)c3)n2)cc(C)c1OCC(O)CO` (racemic) [Example 4, (RS)-3-{4-[5-(2-Chloro-6-isobutyl-pyridin-4-yl)-[1,2,4]oxadiazol-3-yl]-2,6-dimethyl-phenoxy}-propane-1,2-diol], for which the EC50 was determined as 0.7 nM.
Turning to `CCc1cc(-c2noc(-c3cc(CC(C)C)nc(OC)c3)n2)cc(C)c1OC[C@@H](O)CNC(=O)CO` [Example 226], the EC50 worked out at 0.9 nM.
On the same count and under the same terms, with `CCc1cc(-c2ncc(-c3cc(C)nc(CC(C)C)c3)o2)cc(C)c1OC[C@@H](O)CO` [Example 235, (S)-3-{2-Ethyl-4-[5-(2-isobutyl-6-methyl-pyridin-4-yl)-oxazol-2-yl]-6-methyl-phenoxy}-propane-1,2-diol] the figure was 5.8 nM; with `CCCc1cc(-c2nnc(-c3cc(C)c(OC[C@@H](O)CNC(=O)CO)c(C)c3)o2)cc(C)n1` [Example 111], 1.8 nM; with `Cc1cc(-c2noc(-c3cc(Cl)nc(OC(C)C)c3)n2)cc(C)c1OCC(O)CNC(=O)CO` (racemic) [Example 26, N-((RS)-3-{4-[5-(2-Chloro-6-isopropoxy-pyridin-4-yl)-[1,2,4]oxadiazol-3-yl]-2,6-dimethyl-phenoxy}-2-hydroxy-propyl)-2-hydroxy-acetamide], 0.4 nM.
As for `CCc1cc(-c2nc(-c3cc(C)c(OC[C@H](O)CNC(=O)CO)c(Cl)c3)no2)cc(C)n1` [Example 60], the concentration giving a half-maximal response (EC50) is 0.5 nM.

For a further test, the system named is circulating lymphocytes in normotensive male Wistar rats. Put plainly: Assessment of in vivo efficacy: circulating lymphocytes after oral administration. Also on record: species or system rat. Particulars: 6 h after oral administration of 10 mg/kg to normotensive male Wistar rats, compared to vehicle-treated group. As for the experimental part:
The efficacy of the compounds of Formula (I) is assessed by measuring the circulating lymphocytes after oral administration of 3 to 30 mg/kg of a compound of Formula (I) to normotensive male Wistar rats. The animals are housed in climate-controlled conditions with a 12 h-light/dark cycle, and have free access to normal rat chow and drinking water. Blood is collected before and 3, 6 and 24 h after drug administration. Full blood is subjected to hematology using Advia Hematology system (Bayer Diagnostics, Zurich, Switzerland).
All data are presented as mean±SEM. Statistical analyses are performed by analysis of variance (ANOVA) using Statistica (StatSoft) and the Student-Newman-Keuls procedure for multiple comparisons. The null hypothesis is rejected when p<0.05.
Lymphocyte counts 6 h after oral administration have been measured for 51 from 244 exemplified compounds (one being dosed at 3 mg/kg) and are in the range of −78% to −53% with an average of −67%.
For `Cc1cc(-c2nc(-c3cc(C)c(OCC(O)CO)c(C)c3)no2)cc(CC(C)C)n1` (racemic) [Example 9, (RS)-3-{4-[5-(2-Isobutyl-6-methyl-pyridin-4-yl)-[1,2,4]oxadiazol-3-yl]-2,6-dimethyl-phenoxy}-propane-1,2-diol], the Lymphocyte counts is −67%.
For `CCc1cc(-c2nc(-c3cc(C)c(OCC(O)CO)c(C)c3)no2)cc(C)n1` (racemic) [Example 8, (RS)-3-{4-[5-(2-Ethyl-6-methyl-pyridin-4-yl)-[1,2,4]oxadiazol-3-yl]-2,6-dimethyl-phenoxy}-propane-1,2-diol], the Lymphocyte counts is given as −62%.
`Cc1cc(-c2nc(-c3cc(C)c(OCC(O)CNC(=O)CO)c(C)c3)no2)cc(OC(C)C)n1` (racemic) [Example 30, 2-Hydroxy-N-((RS)-2-hydroxy-3-{4-[5-(2-isopropoxy-6-methyl-pyridin-4-yl)-[1,2,4]oxadiazol-3-yl]-2,6-dimethyl-phenoxy}-propyl)-acetamide]: the Lymphocyte counts is on record as −73%.
Consider `COc1cc(-c2noc(-c3cc(C)nc(CC(C)C)c3)n2)cc(C)c1OCC(O)CNC(=O)CO` (racemic) [Example 159, (RS)-2-Hydroxy-N-(2-hydroxy-3-{4-[5-(2-isobutyl-6-methyl-pyridin-4-yl)-[1,2,4]oxadiazol-3-yl]-2-methoxy-6-methyl-phenoxy}-propyl)-acetamide], for which the Lymphocyte counts is −74%.

What is called EC50 is the concentration needed to bring the measured effect to its halfway point.
